Experimental data from patent US8143889B2, “Simultaneous acquisitions of spin- and stimulated-echo planar imaging” (University of Utah Research Foundation, priority 2009, dated 2012).

Assays:
Type in all cases: physicochemical
[1] = T1 and turbo-FLASH signal intensity on phantom with different concentrations of Gd-BOPTA
Protocol: The results are plotted in FIG. 12. […] The dosage 0.1˜0.2 mM [PBCA]/kg is the routine dosage for DCE-MRI and local concentrations may easily exceed 0.2˜0.4 mM/kg in organs with high-blood supply or at the periphery of a tumor. The signal behavior of the gradient-echo MRI varies widely with the selection of TR, TE, and flipangle, and for T1. Although a set of these imaging parameters may be linear for a small range of PBCA concentrations and specific T1, it will not be linear for other T1 values. […] Thus, direct conversion of SI to the concentration is subject to large error, which will be propagated into the subsequent kinetic calculation. In contrast, the realtime T1 mapping provided by embodiments of the invention described above is linearly related to the PBCA concentration. Thus, the realtime T1 mapping provides accurate realtime estimation of the PBCA concentration resulting in improvement of the accuracy of drug-delivery or tumor evaluation.

[2] = T1 of MnCl2/water phantom by saturation-recovery spin-echo; details: 3 Tesla
Protocol: (§1) MRI studies were performed on a Siemens Trio 3 Tesla MRI system (Siemens Medical Solutions, Erlangen, Germany) with Avanto gradients (45 mT/m strength and 150 T/m/s slew rate). The pulse sequence was developed based on a singleshot spin-echo EPI sequence, using the IDEA pulse sequence development environment. Realtime calculation of T1 mapping was implemented into a custom-made ICE program (Image Construction Environment). The image construction program produced two magnitude images, two phase images, and a T1 map for each slice.
A phantom was constructed with four 20 cc plastic bottles filled with 0.05, 0.1, 0.2, and 0.4 mM MnCl2/water solutions, respectively, and immersed in jello in a rectangular acrylic container with dimensions 8×8×13 cm^3. The T1 of each concentration was 1.3, 0.9, 0.55, 0.35 sec for 0.05, 0.1, 0.2, 0.4 mM, respectively. T1 of the phantom was measured using saturation-recovery spin-echo.

[3] = T1 mapping of MnCl2/water phantom by inversion-recovery spin-echo (IR-SE) imaging and 2D ss-SGSTEPI; details: 3 Tesla
Protocol: as §1
A phantom was constructed with 4 plastic bottles filled with MnCl2/water solutions with concentrations of 0.05, 0.1, 0.2, and 0.4 mM, which were surrounded by jello. T1 mapping experiment was conducted using inversion-recovery spin-echo (IR-SE) imaging and 2D ss-SGSTEPI. T1 of each concentration of MnCl2/water solution were measured as 1.5, 0.89, 0.55, 0.35 sec for […], respectively.

SMILES | T1 relaxation rate (1/T1) of the water proton vs. concentration ([1]; FIG. 12(b)) | signal intensities of turboFLASH and spin-EPI vs. concentration ([1]; TR/TE=7.2/2.7 ms, flipangle 30°, FIG. 12(a)) | T1 ([2]; 0.05 mM MnCl2/water solution) | T1 ([2]; 0.1 mM MnCl2/water solution) | T1 ([2]; 0.2 mM MnCl2/water solution) | T1 ([2]; 0.4 mM MnCl2/water solution) | T1 ([3]; 0.05 mM MnCl2/water solution) | T1 ([3]; 0.1 mM MnCl2/water solution) | T1 ([3]; 0.2 mM MnCl2/water solution) | T1 ([3]; 0.5 mM MnCl2/water solution)
CNC[C@H](O)[C@@H](O)[C@H](O)[C@H](O)CO.CNC[C@H](O)[C@@H](O)[C@H](O)[C@H](O)CO.O=C([O-])CN(CCN(CC(=O)[O-])CC(=O)O)CCN(CC(=O)O)C(COCc1ccccc1)C(=O)[O-].[Gd+3] (stereo not shown) [Gd-BOPTA, Gadobenate dimeglumine] | very linear with the concentration | non-linear even at low concentration |  |  |  |  |  |  |  | 
[Cl][Mn][Cl] [MnCl2] |  |  | 1.3 s | 0.9 s | 0.55 s | 0.35 s | 1.5 s | 0.89 s | 0.55 s | 0.35 s
